Measurements taken from patent publication US5958719A, “Method for the determination of the activity of specific phosphotyrosine phosphatases and specific effectors thereof in intact cells” (Max-Planck Gesellschaft Zur Foderung der Wissenschaften E.V., priority 1995, dated 1999).
“Also recorded” adds a separate entry of the source.

Assays:
[1] = system: PDGF receptor-directed PTPase(s); type: cell-based, mouse
PDGF receptor PTK = test: Inhibition of PDGF receptor PTK (PDGF-induced receptor autophosphorylation, anti-phosphotyrosine immunoblot) in Swiss 3T3 cells; type: cell-based, mouse; conditions: AG1296 50 μM, 2 min preincubation, then PDGF-BB 100 ng/ml 5 min
Text: (§1) Swiss 3T3 fibroblasts (mouse) express PDGFα and PDGFβ receptors on the cell surface (Hosang et al. (1989)). Stimulation of the cells with PDGF leads to a rapid autophosphorylation of these receptors at tyrosine residues. This autophosphorylation can be detected in immunoblots using anti-phosphotyrosine antibodies after immunoprecipitation of the receptors and can be detected in unfractionated cell lysates. The autophosphorylated receptors are rapidly dephosphorylated by PDGF receptor-directed PTPase(s) (Bohmer et al. (1993)). The identity of the cellular PTPases which catalyse this reaction is not known. […] If the inhibitor is added to cells after activation of the PDGF receptor PTK, the dephosphorylation of the PDGF receptor can be monitored over time. (FIG. 3).
Confluent, resting Swiss 3T3 cells were incubated as stated for various periods in serum-free cell culture medium without supplements (lanes 1, 2) or with the PDGF receptor PTK inhibitor AG1296 (final concentration 50 μM) (lanes 3-6). Then human recombinant PDGF-BB (final concentration 100 ng/ml) (lanes 2-6) or the corresponding solvent (lane 1) was added and the incubation was continued for 5 minutes.

[2] = system: PDGF receptor-directed PTPase(s); test: PDGF receptor-directed PTPase activity (dephosphorylation of autophosphorylated PDGF receptor) in isolated Swiss 3T3 cell membranes; type: biochemical, mouse; conditions: AG1296 50 μM, 30 min incubation, 10 mM EDTA
Text: as §1
Isolated Swiss 3T3 cell membranes (10 μg protein per lane) were treated for 20 minutes on ice with PDGF (2 μg/ml). The activated PDGF receptor PTK was then autophosphorylated by adding 3 mM (final concentration) ATP. The kinase reaction was inhibited by addition of 10 mM EDTA. At the same time AG1296 (50 μM) (B) or the corresponding solvent (DMSO) (A) was added. The phosphotyrosine content of the PDGF receptor was measured in a similar manner to that described in FIG. 1 immediately after addition of the agents (0 min) or after 30 min incubation. […]

PDGF receptor = PDGF receptor dephosphorylation over time in intact PDGF-stimulated Swiss 3T3 cells after addition of PTK inhibitor; type: cell-based, mouse; conditions: AG1296 50 μM added after 5 min PDGF stimulation; intact Swiss 3T3 cells
Text: as §1
Swiss 3T3 cells were treated in serum-free medium with PDGF (FIG. 3, lanes 2-6) or the corresponding solvent (FIG. 3, lane 1). After 5 minutes stimulation AG1296 (50 μM, FIG. 3B) or the corresponding solvent (DMSO, FIG. 3 A) was added. The phosphotyrosine content of the PDGF receptor was examined in the cells thus treated at the stated various time points. […] This decrease is caused by the activity of the PDGF receptor-directed PTPase in the intact cells.

NGF receptor PTK (Trk) = test: Inhibition of NGF receptor PTK (NGF-induced TrkA autophosphorylation, immunoprecipitation and anti-phosphotyrosine immunoblot) in PC12 cells; type: cell-based, rat; conditions: K252a 1 μM, 2 min (short) preincubation, then NGF 150 ng/ml 10 min; PC12 cells overexpressing TrkA
Text: (§2) PC 12 cells (rat pheochromocytoma cells) which overexpress NGF receptors (Trk A) (Obermeier et al. (1994)) were used for the experiments shown. Stimulation of the cells with NGF leads to a rapid autophosphorylation of these receptors at tyrosine residues. This autophosphorylation can be detected in immunoblots using anti-phosphotyrosine antibodies after immunoprecipitation of the receptors. The identity of the cellular PTPases which dephosphorylate autophosphorylated NGF receptors is not known.
PC12 cells that overexpress TrkA were incubated as stated for various periods in serum-free cell culture medium without supplements (lanes 1, 2) or with the NGF receptor PTK inhibitor K252a (final concentration 1 μM) (lanes 3-6). Then NGF (final concentration 150 ng/ml) (lanes 2-6) or the corresponding solvent (lane 1) was added and the incubation was continued for 10 minutes.

NGF receptor = NGF receptor dephosphorylation over time in intact NGF-stimulated TrkA-transfected PC12 cells after addition of PTK inhibitor; type: cell-based, rat; conditions: K252a 1 μM added after 10 min NGF stimulation; intact PC12 cells transfected with TrkA
Text: as §2
PC12 cells transfected with TrkA were treated in serum-free medium with NGF (lanes 2-6) or the corresponding solvent (lane 1). After a 10 minute stimulation, K252a (1 μM, B) or the corresponding solvent (DMSO, A) was added. At the stated various time points the cells treated correspondingly were tested as described in FIG. 1 and the phosphotyrosine content of the NGF receptors was examined. […] This decrease is caused by the activity of the NGF receptor-directed PTPase in the intact cells.

NGF receptor PTK = conditions: Ohmichi et al (1992); Tapley et al (1992); cited from earlier work

In the case of `CNc1ccc2oc(CC3OC4(CCC3C)OC(C(C)C(=O)c3ccc[nH]3)C(C)CC4C)nc2c1C(=O)O` (centres unmarked) [A23187], the “action on PTPases which specifically dephosphorylate the PDGF receptor” value [1] is reported as “activator” and the “Relative PDGF receptor-directed PTPase activity (% of control)” value ([1]; swiss 3t3 cells, 5 min, 1 µM) is reported as 161 % of control.
With `COc1cc2ncc(-c3ccccc3)nc2cc1OC` [AG1296] the “inhibition of PDGF receptor PTK activity / PDGF-induced receptor autophosphorylation” value (PDGF receptor PTK) was “completely inhibits its activity; also recorded: completely suppressed”, the “influence on PDGF receptor-directed PTPase activity (dephosphorylation)” value [2] was “does not influence the activity of the PTPase(s); also recorded: does not inhibit; also recorded: does not influence this dephosphorylation” and the “phosphotyrosine content of the PDGF receptor over time” value (PDGF receptor) was “continuously decreases”.
In the case of `COC(=O)C1(O)CC2OC1(C)n1c3ccccc3c3c4c(c5c6ccccc6n2c5c31)C(=O)NC4` (centres unmarked) [K252a], the “inhibition of Trk receptor PTK activity / NGF-induced receptor autophosphorylation” value (NGF receptor PTK (Trk)) is listed as “completely inhibits the activity; also recorded: completely suppressed”, the “phosphotyrosine content of the NGF receptor over time” value (NGF receptor) is listed as “very rapid dephosphorylation; also recorded: decreases significantly” and the “specificity of inhibition of NGF receptor PTK and PTK of other neurotrophin receptors” value (NGF receptor PTK) is listed as “specific inhibitor of the NGF receptor PTK”.
